≈ marks a conversion by molar mass, not a printed value. Where two headings read alike, the source gives them in different places.
Legend:
[1] = well known; c2, t2 pairs compared with c1 (III/IV) and t1 (VII/VIII) pairs; cited from earlier work
Tobacco Budworm = assay: Foliar LC50 - Tobacco Budworm; format: in vivo; conditions: for LC50: Heliothis virescens
From the text: This increase in activity is illustrated in Table II in which the test insect is the economically important tobacco budworm.
Foliar LC50 (ppm) - Tobacco Budworm

In the case of CC1(C)[C@H](C=C(Cl)Cl)[C@H]1C(=O)O[C@H](C#N)c1cccc(Oc2ccccc2)c1 [V], the insecticidal activity [1] is given as “most insecticidally active”.
In the case of CC1(C)[C@H](C=C(Cl)Cl)[C@H]1C(=O)O[C@H](C#N)c1cccc(Oc2ccccc2)c1 (relative stereo) [t2 enantiomer pair], the insecticidal activity [1] is listed as “more insecticidally active”.
CC1(C)C(C=C(Cl)Cl)C1C(=O)OC(C#N)c1cccc(Oc2ccccc2)c1 (racemic) [Example 1, (R,S)-(cyano)(3-phenoxyphenyl)methyl cis/trans-3-(2,2-dichloroethenyl)-2,2-dimethylcyclopropanecarboxylate] gave an LC50 (Tobacco Budworm; Average of Tests 1-3, read-out: Foliar LC50, Average) of 13.2 µg/mL (≈ 31.7 µM), an LC50 (Tobacco Budworm; Test 1, read-out: Foliar LC50) of 8.4 µg/mL (≈ 20.2 µM) and an LC50 (Tobacco Budworm; Test 2, read-out: Foliar LC50) of 18.7 µg/mL (≈ 44.9 µM). It also gave an LC50 (Tobacco Budworm; Test 3, read-out: Foliar LC50) of 12.5 µg/mL (≈ 30 µM).
For CC1(C)[C@H](C(=O)O[C@H](C#N)c2cccc(Oc3ccccc3)c2)[C@@H]1C=C(Cl)Cl (relative stereo) [c2 enantiomer pair], the insecticidal activity [1] is given as “more insecticidally active”.
For CC1(C)[C@H](C(=O)O[C@H](C#N)c2cccc(Oc3ccccc3)c2)[C@@H]1C=C(Cl)Cl [I, (S)-(cyano)(3-phenoxyphenyl)methyl 1R,cis-3-(2,2-dichloroethenyl)-2,2-dimethylcyclopropanecarboxylate], the insecticidal activity [1] is listed as “most insecticidally active”.
For CC1(C)C(C=C(Cl)Cl)C1C(=O)OC(C#N)c1cccc(Oc2ccccc2)c1 (racemic) [Example 5, (R,S)-(cyano)(3-phenoxyphenyl)methyl cis/trans-3-(2,2-dichloroethenyl)-2,2-dimethylcyclopropanecarboxylate], the “Foliar LC50, Average” value (Tobacco Budworm; Average of Tests 1-3) was 9.9 ppm, the “Foliar LC50” value (Tobacco Budworm; Test 1) was 6.5 ppm and the “Foliar LC50” value (Tobacco Budworm; Test 2) was 12.3 ppm. The “Foliar LC50” value (Tobacco Budworm; Test 3) was 11.0 ppm.
